From PubChem BioAssay (NCI)
Values joined by “and” are separate entries in the source; they are usually repeats but may differ in a detail not shown here. Identical values can stand only once.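 Where inhibition never reached the appropriate level, the endpoint shown equals the highest concentration tested. Otherwise, values were interpolated linearly from a five-concentration, 48-hour dose response in 96-well plates. GI50 marks 50% less growth. TGI is the concentration that stops growth completely.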

Tests used:
Assay in all cases: inhibition of tumour cell growth, NCI panel, 48 h
A549 NSCLC = tested on: A549 NSCLC
EKVX NSCLC = tested on: EKVX NSCLC
HCC-2998 colon = tested on: HCC-2998 colon
HCT-116 colon = tested on: HCT-116 colon
K-562 leukemia = tested on: K-562 leukemia
M14 melanoma = tested on: M14 melanoma
MOLT-4 leukemia = tested on: MOLT-4 leukemia
NCI-H522 lung = tested on: NCI-H522 lung
SF-268 CNS = tested on: SF-268 CNS
UO-31 renal = tested on: UO-31 renal

Row | SMILES | GI50 (A549 NSCLC) [µM] | TGI (A549 NSCLC) [µM] | GI50 (EKVX NSCLC) [µM] | TGI (EKVX NSCLC) [µM] | GI50 (HCC-2998 colon) [µM] | TGI (HCC-2998 colon) [µM] | GI50 (HCT-116 colon) [µM] | TGI (HCT-116 colon) [µM] | GI50 (K-562 leukemia) [µM] | TGI (K-562 leukemia) [µM] | GI50 (M14 melanoma) [µM] | TGI (M14 melanoma) [µM] | GI50 (MOLT-4 leukemia) [µM] | TGI (MOLT-4 leukemia) | GI50 (NCI-H522 lung) [µM] | TGI (NCI-H522 lung) | GI50 (SF-268 CNS) [µM] | TGI (SF-268 CNS) [µM] | GI50 (UO-31 renal) [µM] | TGI (UO-31 renal) [µM]
1 | CCSCC1CC(O)(c2ccccc2)C(c2ccccc2)C(c2ccc(F)cc2)O1 (centres undefined) | 2.15 | 6.35 | 1.82 | 6.13 | 2.23 | 4.58 | 1.47 | 3.22 | 2.11 | 6.53 | 1.74 | 3.23 | 1.61 | 4.91 µM | 1.57 | 4.84 µM | 2.15 | 5.45 | 1.71 | 6.46
2 | COc1cc(/C=C/c2csnn2)cc(OC)c1OC |  | > 100 |  | > 100 |  | > 100 |  | > 100 |  | > 100 |  | > 100 |  | > 100 µM |  | > 100 µM |  | > 100 |  | > 100
3 | CN1CCN(c2c(F)cc(NC3=C(Cl)C(=O)c4ncccc4C3=O)cc2F)CC1 | 18 | 35.4 | 14.9 | 33.4 | 11.5 | 26.1 | 1.78 | 3.35 | 0.494 | > 100 | 4.34 | 15.3 | 1.79 | 6.71 µM | 1.43 | 3.82 µM | 14.1 | 28.3 | 1.52 | 2.95
4 | CC(C)[C@@H]1CC[C@]2(CO2)[C@@H]2C(=O)OCC(C(=O)O)=C[C@H]21 | 1.57 | > 100 | 5.17 | > 100 | 0.459 | > 52.3 | 0.325 | > 100 | 0.334 | > 100 | 0.273 | 0.898 | 0.62 | 3.96 µM | 0.0462 | 0.155 µM | 0.34 | > 52.5 | 0.408 | 15.9
5 | ClCCOCCn1cnc2c(Cl)nc(Cl)nc21 | 21.6 | 61.9 | 12.5 | 27.7 | 1.42 | 2.88 | 10.8 | 25.1 | 15.9 | > 100 | 13.4 | 27.9 | 24.7 | > 100 µM | 20 | 50 µM | 6.82 | 20.3 | 13.3 | 26.7
6 | COc1ccc2nc(NC(=O)C(=O)CC(=O)c3ccc([N+](=O)[O-])cc3)sc2c1 |  | > 100 |  | > 100 |  | > 100 |  | > 100 |  | > 100 |  | > 100 |  | > 100 µM |  | > 100 µM |  | > 100 |  | > 100
7 | COC12C(COC(=O)NCCO)C3=C(C(=O)C(C)=C(N)C3=O)N1CC1NC12 (centres undefined) | 29.7 | > 264 |  | > 264 |  | 99.3 | 35.1 | 114 |  | > 264 | 49.9 | > 264 |  | > 264 µM | 36.1 | 33.5 µM and 99.6 µM | 32.9 | 217 | > 264 | > 264
8 | COc1ccc(C(O)c2cc3c(N)c(C(=O)Nc4cccc5ccccc45)sc3nc2C)cc1 (centres undefined) | 0.381 | > 100 | 0.486 | > 100 | 0.475 | > 54 | 0.318 | > 64 | 0.314 | > 53.9 | 0.307 | > 37.7 | 0.399 | > 33.2 µM | 0.157 |  | 0.615 | > 100 | 0.622 | > 75.4
9 | O=NN(CCCl)C(=O)NC1CCC(CC(=O)O)CC1 (centres undefined) |  | > 100 |  | > 100 |  | > 100 |  | > 100 |  | > 100 |  | > 100 |  | > 100 µM and 63.2 µM |  | > 100 µM |  | > 100 |  | > 100
10 | Nc1nc(=S)c2ncn(C3OC(COP(=O)(O)O)C(O)C3O)c2[nH]1 (centres undefined) | 4.69 | > 100 | 2.34 | > 100 | 3.29 | > 100 | 0.5 | > 100 | 0.965 | > 100 | 0.503 | 32.8 | 0.354 | > 100 µM | 2.11 | 9.52 µM | 2.11 | > 100 | 1.98 | > 100
11 | CC(=O)Oc1ccc(C2=Cc3ccc(OC(C)=O)cc3OC2C)cc1 (centres undefined) | 6.29 | > 100 | 2.38 | 13.5 | 11.1 | 72 | 4.87 | 17.9 | 3.05 | > 100 | 4.11 | 38.1 | 1.97 | 19.4 µM | 3.58 | 23.1 µM | 3.44 | 30.6 | 2.05 | 6.65
12 | CC(=O)NC1C(O[C@H]2C[C@H]3[C@@H]4CC=C5C[C@@H](O)CC[C@]5(C)[C@H]4CC[C@]3(C)[C@H]2[C@H](C)C(=O)CCC(C)C)OCC(O)C1O (some centres undefined) | 5.45 | 15.3 | 1.97 | 9.37 | 6.46 | 14.6 | 1.39 | 5.82 | 1.35 | 5.16 | 0.732 | 1.57 | 1.22 | 3.11 µM | 8.72 | 18.8 µM | 2.31 | 11.2 | 1.18 | 3.52
13 | CCCCCCCCCCCCCCNC(=O)Nc1ccc(Cl)c(Cl)c1 | 3.34 | > 100 | 1.97 | 6.15 | 2.85 | > 100 | 2.37 | > 23.3 | 8.04 | > 100 | 2.89 | > 44.3 | 1.6 | > 25.1 µM | 1.66 | 5.75 µM | 3.72 | > 100 | 1.57 | 
14 | CCOC(=O)/C(=C/c1ccccn1)C(=O)c1ccccc1 |  | 44.5 |  | 42.8 |  | 31.3 |  | 27.3 |  | 85 |  | 29.3 |  | 26 µM |  | 13.8 µM |  | 44 |  | 30
15 | O=C1CC(c2ccc(Cl)cc2)=Nc2ccccc2N1 |  | > 100 |  | > 100 |  | > 100 |  | 59.6 |  | > 100 |  | > 100 |  | > 100 µM |  | > 100 µM |  | > 100 |  | > 100
16 | Fc1ccc(NC(c2ccc(F)cc2)C2CCN(CCCCc3ccccc3)CC2)cc1 (centres undefined) | 1.91 | 3.73 | 1.7 | 4.42 | 1.76 | 3.31 | 1.41 | 2.75 | 2.07 | 4.96 | 1.59 | 3.2 | 1.74 | 4.37 µM | 1.65 | 3.47 µM | 1.68 | 3.83 | 1.08 | 2.43
17 | O=C1C2C3C=CC(C2C(=O)N1CO)C1C2C(=O)N(CO)C(=O)C2C31 (centres undefined) |  | > 88.4 |  | > 100 |  | > 100 |  | > 59.8 |  | > 82.5 |  | > 100 |  | > 100 µM |  | > 100 µM |  | > 79 |  | > 100
18 | CCO/C=C1\SC(=S)N(c2ccc(OCC)cc2)C1=O |  | > 100 |  | > 100 |  | > 100 |  | > 100 |  | > 100 |  | > 100 |  | > 100 µM |  | > 100 µM |  | > 100 |  | > 100
19 | CN1CCOC(C(NC(=O)c2ccccc2)c2ccccc2)C1=O (centres undefined) |  | > 100 |  | > 100 |  | > 100 |  | > 100 |  | > 100 |  | > 100 |  | > 100 µM |  | > 100 µM |  | > 100 |  | > 100
20 | [O]=[V]([OH])([OH])[OH] | > 100 | > 100 | > 100 | > 100 | > 100 | > 100 | > 100 | > 100 | > 100 | > 100 | > 100 | > 100 | > 100 | > 100 µM | > 100 | > 100 µM | > 100 | > 100 | > 100 | > 100
21 | COc1ccc(/C=C2\CCC/C(=C\c3ccc(OC)c(OC)c3)C2=O)cc1OC | 1.79 | > 32.5 | 14 | > 32.5 | > 32.5 | > 32.5 | 1.14 | 5.07 | 2.28 | > 32.5 | 1.9 | > 32.5 | 4.74 | > 32.5 µM | 2.19 | 15.4 µM | 4.28 | > 32.5 | 3.63 | > 32.5
22 | CCN(CC)c1ccc2nc3ccc(=[N+](CC)CC)cc-3oc2c1 | 0.826 | > 100 | 0.292 | > 40.7 | 0.395 | 39.4 | 0.0402 | 1.27 | 0.174 | > 100 | 0.0903 | 1.71 | 0.286 | > 100 µM | 0.0534 | 0.329 µM | 0.184 | 31.2 | 2.63 | 25
23 | CC(=O)OCC(=O)[C@@]1(O)CC[C@H]2[C@@H]3C[C@H](C)C4=CC(=O)C=C[C@]4(C)[C@@]3(F)[C@@H](O)C[C@@]21C |  | > 100 |  | > 100 |  | > 100 |  | > 100 |  | > 100 |  | > 100 |  | > 100 µM |  | > 100 µM |  | > 100 |  | > 100
24 | Cc1noc(NC(=O)Nc2ccccc2F)c1C#N |  | > 52.1 |  | 25.1 |  | 3.8 |  | > 43 |  | > 100 |  | > 42.6 |  | > 100 µM |  | > 34.7 µM |  | > 48.9 |  | 4.42
25 | C=CCN(CC=C)C(=O)c1cc(C)nc2c1c(=O)n(-c1ccccc1)c(=O)n2CCCN1CCN(c2ccccc2OC)CC1 | > 50 | > 50 | > 50 | > 50 | > 50 | > 50 | > 50 | > 50 | > 50 | > 50 | > 50 | > 50 | > 50 | > 50 µM | > 50 | > 50 µM | > 50 | > 50 | > 50 | > 50
26 | C=C(CN1CCc2[nH]c3ccc(F)cc3c2C1)c1ccc(C(=O)Nc2ccccc2N)cc1 | 1.17 | 9.17 | 5.06 | 19.7 | 1.38 | 3.82 | 0.367 | 5.04 | 1.06 | 14.6 | 0.78 | 4.75 | 1.92 | 6.56 µM | 0.316 | 1.35 µM | 3.03 | 8.36 | 0.997 | 4.14
27 | COc1ccccc1Oc1nccc(-c2c(-c3ccc(F)cc3)ncn2C2CCNCC2)n1 | > 25 | > 25 | > 25 | > 25 | 11.8 | > 25 | 19.6 | > 25 | 8.32 | > 25 | > 19.1 | > 25 | > 16.3 | > 25 µM | > 25 | > 25 µM | > 25 | > 25 | 6.86 | > 25
28 | CSc1nc2nc(-c3ccccc3)c(C)c-2c2n1C(C)C(=O)N2 (centres undefined) | 40.1 | > 100 | 65.7 | > 100 | 88.6 | > 100 | 37.4 | > 100 | 41.5 | > 100 | 38.6 | > 100 | 40.3 | > 100 µM | 38.1 | > 100 µM | 34.2 | > 100 | 18.3 | > 100
29 | OCCCCC#Cc1ccccc1C#Cc1cccc(C(F)(F)F)c1 | 15.1 | 28.6 | 17.9 | 34.7 | 17.7 | 32.3 | 20.9 | 49.8 | 22.5 | 71.5 | 21.5 | 50.5 | 21.8 | 59.9 µM | 16.6 | 33.6 µM | 19.1 | 42.5 | 17.2 | 31.6
